# Measurements from patent publication US20120039816A1, “USE OF 7-CHLORO-N,N,5-TRIMETHYL-4-OXO-3-PHENYL-3,5-DIHYDRO-4H-PYRIDAZINO[4,5-B] INDOLE-1-ACETAMIDE AS A BIOMARKER OF PERIPHERAL BENZODIAZEPINE RECEPTOR LEVELS” (SANOFI-AVENTIS, priority 2008, published 2012).
# Legend:
# PBR [1] = biological target: T1, PBR (Homo sapiens, UniProt P30536); details: in vitro and in vivo; cited from earlier work
# PBR [2] = biological target: PBR (Rattus norvegicus, UniProt P16257); details: excess unlabelled PK11195 (23 μM) or A (22 μM), FIG. 5
# [3] = biological target: T2, PBR (peripheral benzodiazepine receptor) (Rattus norvegicus, UniProt P16257); assay: MicroPET imaging in AMPA-lesioned rat model of neuroinflammation; type: in vivo, Wistar rats
# T2 construct: lesioned striatum of AMPA-injected rats (the region in which PBR expression is induced); from tissue; host or cells: brain (AMPA-lesioned and intact striatum) of Wistar rats, imaged in vivo or cut into 20 µm sections
# Description: Wistar rats (average body weight 300 g, centre d'Élevage René Janvier, France) were kept in thermoregulated, humidity controlled facilities under a 12 h/12 h light/dark cycle (light on between 7 h AM and 7 h PM) and were allowed free access to food and water. […] AMPA (0.5 μL) was injected into the right striatum (Bregma+0.7 mm, from sagittal suture: 2.7 mm, depth from brain surface: 5.5 mm).
# (§1) MicroPET imaging was performed 7 days post-AMPA injection in rats and in 11-12 month old transgenic mice. In both mice and rats, anaesthesia was induced by isoflurane 5%, and thereafter maintained by 2-2.5% of isoflurane in a mixture of 70%/30% […]. […] Mice were placed on a bed equipped with an anaesthetic mask allowing heating of the air flow and the rectal temperature was monitored using the Homeothermic Blanket Control Unit.
# (§2) In rats, radiolabelled compounds and unlabelled ligands were injected in the caudal vein with the use of 24 gauge catheter. Radiolabelled compounds were injected concomitantly at the start of the PET acquisition and unlabelled compounds were injected 20 min after injection of radiotracers. PET data were acquired for 80 min. In mice, radiolabelled compounds were injected in the caudal vein using 28 gauge needles immediately before the PET scan initiation. PET data were acquired for 60 min.
# (§3) PET image analysis was performed using ASIPro VM™ (CTI Concorde Microsystems' Analysis Tools and System Setup/Diagnostics Tool) and Brainvisa/Anatomist (http://brainvisa.info/).
# PBR [4] = assay: PET imaging in quinolinic acid primate model of neuroinflammation; type: in vivo, Cynomolgus macaques (Macaca fascicularis)
# Description: Cynomolgus macaques (Macaca fascicularis) weighing 4-5 kg were housed in thermoregulated, humidity controlled facilities under a 12 h/12 h light/dark cycle (light on between 7 h a.m. and 7 h p.m.) and were allowed free access to food and water. Neuroinflammation was induced by local sterotaxic injections of quinolinic acid (quinolinic acid, Sigma, St. Louis, Mo.; dissolved in 0.1 M PBS, pH 7.2) into the primate striatum (1 injection site into caudate and 2 injection sites into the putamen) during two different surgical interventions where quinolinic acid was injected into one hemisphere on day 1 and the second hemisphere 2 weeks or 7 months later (FIGS. 8 and 9). During each surgical session the animals received 60 nmol of quinolinic acid distributed over three different striatal sites, one 5 μL site in the caudate and two 10 μL sites in the putamen using a 10 μL-Hamilton syringe attached to a 26-gauge needle. […] The excitotoxin was injected at a rate of 0.1 μL/min and the injection syringe left in place for an additional 5 min to avoid backflow of the toxin. Throughout the surgery, the primate temperature was maintained normothermic (rectal temperature, 36° C.±0.6° C., mean±SD). After removing the needle, the skin was sutured and the animals were allowed to recover from anesthesia and returned to their cages when fully awake.
# Imaging sessions were performed before and at various times after quinolinic acid injection (24 hrs, 48 hrs, 9 days, 16 days and 7 months post lesion).
# One hour before PET imaging, animals were anaesthetized by intramuscular injection of a ketamine/xylazine mixture (15 mg/kg/1.5 mg/kg) and intubated. Catheters were then placed in a saphenous vein for radiotracer injection and in a femoral artery for blood sampling. Animals were maintained anaesthetized by an intravenous injection of propofol (Diprivan® 1%; 0.05 mg·kg^−1·min^−1).
# To ensure correct positioning of the animal in the apparatus, the animal's head was secured in a home-made stereotactic frame. PET scans were performed using the high-resolution Focus micro-PET (CTI-Siemens, Knoxville, Tenn.), which acquires 95 contiguous planes simultaneously. For attenuation correction, a transmission scan was first performed using a ^68Ge rotating rod source.
# as §3
# PBR [5] = biological target: T3, PBR (Mus musculus, UniProt P50637); assay: MicroPET imaging in APP×PS1 and PS1 transgenic mice; type: in vivo; details: for uptake in APP×PS1 vs wild type PS1: whole brain, 11-12 month old mice, PET
# T3 construct: from tissue; host or cells: brain of PS1 and APPxPS1 transgenic mice, imaged in vivo at 11-12 months or cut into sections at 20-23 months
# Text: Generation and characterization of single PS1M146L (PS1) and double APP751SL×PS1M146L (APP×PS1) transgenic mice were achieved, as described previously (Blanchard, V. et al. (2003) Exp. Neurol. 184: 247-263). In these animals APP is expressed at a high level in all cortical neurons under the control of the Thy-1 promoter. Human PS1 with the M146L mutation is expressed under the control of the HMG-CoA reductase promoter. […] Both single PS1 and double APP×PS1 mice, provided by Sanofi-Aventis, were used for PET imaging at the age of 11-12 months and autoradiography at 20-23 months.
# as §1, §2, §3
# [6] = Metabolite analysis in rat blood and brain; type: in vivo, Wistar rats
# Description: A blood sample was collected and plasma isolated by centrifugation (5 min, 3000 rpm). Plasma proteins were precipitated from 400 μL of serum by addition of 400 μL of acetonitrile. After centrifugation (5 min, 3000 rpm), the supernatant was injected onto the HPLC column. Rat brains were removed and hemispheres were separated. Homogenisation by sonication was performed in 1 mL of acetonitrile per hemisphere. After a rapid centrifugation, the supernatant was separated from the pellet and concentrated under reduced pressure before injection onto the HPLC (see radiochemistry section for HPLC conditions).
# PBR [7] = biological target: T1, PBR; details: PET ligand; cited from earlier work
# [8] = systemic, large excess (1 mg/kg), 30 min after radiotracer injection (FIG. 9)
# T1 sequence (P30536 whole entry, species assumed): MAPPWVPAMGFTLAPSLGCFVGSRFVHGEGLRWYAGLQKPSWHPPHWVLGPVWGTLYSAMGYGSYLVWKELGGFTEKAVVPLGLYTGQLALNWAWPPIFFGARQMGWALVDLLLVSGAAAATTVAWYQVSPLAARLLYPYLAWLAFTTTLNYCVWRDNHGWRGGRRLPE
smiles,measurement,setting,value
"CN(C)C(=O)Cc1nn(-c2ccccc2)c(=O)c2c1c1ccc(Cl)cc1n2C [A, 7-chloro-N,N,5-trimethyl-4-oxo-3-phenyl-3,5-dihydro-4H-pyridazino[4,5-b]indole-1-acetamide]",affinity for the PBR,PBR [1],high affinity
CCC(C)N(C)C(=O)c1cc2ccccc2c(-c2ccccc2Cl)n1 (stereo not drawn) [PK11195],effect of excess unlabelled ligand on ipsilateral to contralateral ratio of [^11C]-A binding,PBR [2],abolished
same,effect of unlabelled compound on [^11C]-A binding in the controlateral side,"[3]; 1 mg/kg i.v., 20 min post [^11C]-A injection",small increase
same,effect of unlabelled compound on brain uptake of [^11C]-A in lesioned striatum,"[3]; 1 mg/kg i.v., 20 min post [^11C]-A injection (FIG. 3, 4)",significantly reduced
same,effect of excess unlabelled compound on [^11C]-A binding in lesioned striatum,PBR [4]; [8],specific displacement
same,effect of excess unlabelled compound on [^11C]-A binding in non-lesioned control brain regions,PBR [4]; [8],no noticeable changes
"CN(C)C(=O)Cc1nn(-c2ccccc2)c(=O)c2c1c1ccc(Cl)cc1n2[11CH3] [[^11C]-A, 7-Chloro-N,N-dimethyl-5-[^11C]methyl-4-oxo-3-phenyl-3,5-dihydro-4H-pyridazino[4,5-b]indole-1-acetamide]",uptake in whole brain (cerebellum excluded) compared to [^11C]PK11195,"PBR [5]; APP×PS1 and wild type PS1 transgenic mice, 11-12 months (FIG. 6)",higher
same,uptake in APP×PS1 vs wild type PS1,PBR [5],not significantly higher
same,metabolites present in brain,"[6]; rats, 10, 20 and 30 min after [^11C]-A injection (FIG. 10)",essentially detected the parent compound only
same,metabolites present in blood and plasma,"[6]; rats, 10 and 20 min after [^11C]-A injection (FIG. 10)",essentially detected the parent compound only
same,uptake in lesioned striatum,"PBR [4]; 7 months after excitotoxin injection, right striatum",returned to baseline levels
same,"uptake in lesioned right striatum compared to contralateral non-injected striatum and control brain regions (cerebellum, prefrontal cortex)",PBR [4]; 24 hrs after excitotoxin injection (FIG. 8),significantly higher
same,increase in uptake in lesioned striatum,"PBR [4]; 48 hrs after excitotoxin injection, left hemisphere",could still be visualized
same,time window of increased uptake after lesion,PBR [4]; early phase of neuroinflammation (FIG. 9),can be visualised from 24 hrs up to 16 days
same,uptake in contralateral non-injected striatum,PBR [4]; same level as brain regions of a non-injected primate (FIG. 8),remained stable
"CC[C@@H](C)N([11CH3])C(=O)c1cc2ccccc2c(-c2ccccc2Cl)n1 [[^11C]PK11195, (R)—N—[^11C]Methyl-N-(1-methylpropyl)-1-(2-chlorophenyl)isoquinoline-3-carboxamide]",uptake in APP×PS1 vs wild type PS1,PBR [5],not significantly higher
same,brain uptake,PBR [7],relatively low brain uptake
same,non-specific binding,PBR [7],high non-specific binding
same,signal to noise ratio,PBR [7],poor signal to noise ratio
same,R1,"[3]; AMPA-injected rats, PET",1.10±0.05
same,binding potential (BP),"[3]; AMPA-injected rats, PET",0.66±0.15
